Laboratory results as given in PubChem BioAssay AID1918933 (Molecular Pharmacology Branch, DTP, NCI, 2023).
Several values for one entry are separate records, joined by “and”; a condition that tells them apart may be missing. Equal entries are not always repeated.

System: 186277-243-T-J2-PDC complex spheroid viability
Experiment: Anticancer human tumor 186277-243-T-J2-PDC patient-derived colon adenocarcinoma cell line growth inhibition
Details: for viability, T/C: stronger effect = lower value
How it was run: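 Drug combinations with the LSD1 inhibitor iadademstat tested on tumor cells co-cultured as spheroids with endothelial cells and mesenchymal stem cells. Concentrations descended in half-log increments from clinical Cmax or 10 microM.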

[1] = curve of first compound, second compound 0.1 µM
[2] = curve of first compound, second compound 0.316 µM
[3] = curve of first compound, second compound 1 µM
[4] = curve of first compound, second compound 3.16 µM
[5] = curve of first compound, second compound 10 µM
[6] = second compound 0.1 µM, first compound 0.0316 µM
[7] = second compound 0.1 µM, first compound 0.1 µM
[8] = second compound 0.1 µM, first compound 0.316 µM
[9] = second compound 0.1 µM, first compound 1 µM
[10] = second compound 0.316 µM, first compound 0.0316 µM
[11] = second compound 0.316 µM, first compound 0.1 µM
[12] = second compound 0.316 µM, first compound 0.316 µM
[13] = second compound 0.316 µM, first compound 1 µM
[14] = second compound 1 µM, first compound 0.0316 µM
[15] = second compound 1 µM, first compound 0.1 µM
[16] = second compound 1 µM, first compound 0.316 µM
[17] = second compound 1 µM, first compound 1 µM
[18] = second compound 3.16 µM, first compound 0.0316 µM
[19] = second compound 3.16 µM, first compound 0.1 µM
[20] = second compound 3.16 µM, first compound 0.316 µM
[21] = second compound 3.16 µM, first compound 1 µM
[22] = second compound 10 µM, first compound 0.0316 µM
[23] = second compound 10 µM, first compound 0.1 µM
[24] = second compound 10 µM, first compound 0.316 µM
[25] = second compound 10 µM, first compound 1 µM
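Also: 7 day exposure to compounds.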
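For viability, T/C in this document: 100% = DMSO vehicle control viability.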

COc1ccc([C@@H](O)c2cc(-c3ncnc4cc(N5CCOCC5)ccc34)c(F)cc2Cl)nn1 + NC1CCC(NC2CC2c2ccccc2)CC1 gave an IC50 [1] of 4320 nM, an IC50 [2] of 4430 nM and an IC50 [3] of 4480 nM. For the same compound, the IC50 [4] was 4300 nM, the IC50 [5] was 3860 nM and the viability, T/C [6] was 112%. For the same compound, the viability, T/C [7] was 119%, the viability, T/C [8] was 112% and the viability, T/C [9] was 93.2%. For the same compound, the viability, T/C (second compound 0.1 µM, first compound 3.16 µM) was 67.3%, the viability, T/C (second compound 0.1 µM, first compound 10 µM) was 7% and the viability, T/C [10] was 128%. It also gave a viability, T/C [11] of 143%, a viability, T/C [12] of 105% and a viability, T/C [13] of 100%. It also gave a viability, T/C (second compound 0.316 µM, first compound 3.16 µM) of 72.7%, a viability, T/C (second compound 0.316 µM, first compound 10 µM) of 5.45% and a viability, T/C [14] of 116%. It also gave a viability, T/C [15] of 118%, a viability, T/C [16] of 108% and a viability, T/C [17] of 109%. The viability, T/C (second compound 1 µM, first compound 3.16 µM) was 68.7%, the viability, T/C (second compound 1 µM, first compound 10 µM) was 6.38% and the viability, T/C [18] was 122%. The viability, T/C [19] was 126%, the viability, T/C [20] was 122% and the viability, T/C [21] was 97.9%. The viability, T/C (second compound 3.16 µM, first compound 3.16 µM) was 67.5%, the viability, T/C (second compound 3.16 µM, first compound 10 µM) was 5.71% and the viability, T/C [22] was 109%. The viability, T/C [23] was 118%, the viability, T/C [24] was 104% and the viability, T/C [25] was 101%. It also gave a viability, T/C (second compound 10 µM, first compound 3.16 µM) of 59% and a viability, T/C (second compound 10 µM, first compound 10 µM) of 5.79%.
Work on O=C(C=Cn1cnc(-c2cc(C(F)(F)F)cc(C(F)(F)F)c2)n1)NNc1cnccn1 + NC1CC1c1ccc(-c2cccc(O)c2)cc1 yielded an IC50 [1] of 56.5 nM, an IC50 [2] of 57.2 nM and an IC50 [3] of 60 nM. For the same compound, the IC50 [4] was 58.4 nM, the IC50 [5] was 52.5 nM and the viability, T/C (second compound 0.1 µM, first compound 0.00316 µM) was 97.5%. For the same compound, the viability, T/C (second compound 0.1 µM, first compound 0.01 µM) was 96%, the viability, T/C [6] was 84.8% and the viability, T/C [7] was 15.7%. It also gave a viability, T/C [8] of 2.81%, a viability, T/C [9] of 1.29% and a viability, T/C (second compound 0.316 µM, first compound 0.00316 µM) of 104%. The viability, T/C (second compound 0.316 µM, first compound 0.01 µM) was 105%, the viability, T/C [10] was 88.3% and the viability, T/C [11] was 13.8%. It also gave a viability, T/C [12] of 2.94%, a viability, T/C [13] of 1.28% and a viability, T/C (second compound 1 µM, first compound 0.00316 µM) of 104%. For the same compound, the viability, T/C (second compound 1 µM, first compound 0.01 µM) was 106%, the viability, T/C [14] was 93.1% and the viability, T/C [15] was 15.5%. For the same compound, the viability, T/C [16] was 3.14%, the viability, T/C [17] was 1.35% and the viability, T/C (second compound 3.16 µM, first compound 0.00316 µM) was 110%. For the same compound, the viability, T/C (second compound 3.16 µM, first compound 0.01 µM) was 116%, the viability, T/C [18] was 91% and the viability, T/C [19] was 14%. The viability, T/C [20] was 2.92%, the viability, T/C [21] was 1.47% and the viability, T/C (second compound 10 µM, first compound 0.00316 µM) was 94.1%. For the same compound, the viability, T/C (second compound 10 µM, first compound 0.01 µM) was 95.2%, the viability, T/C [22] was 78.8% and the viability, T/C [23] was 13.3%. For the same compound, the viability, T/C [24] was 3.41% and the viability, T/C [25] was 1.57%.
CC(C)CC(NC(=O)C(Cc1ccccc1)NC(=O)c1cnccn1)B(O)O (configuration not stated) was tested, and the viability, T/C (compound 0.000316 µM) was 96.1% and 94%, the viability, T/C (compound 0.01 µM) was 3.46% and 0.11% and the viability, T/C (compound 0.0316 µM) was 2.69% and 0.11%. The viability, T/C (compound 0.1 µM) was 3.82% and 0.17% and the IC50 (curve of compound) was 2.74 nM and 0.548 nM.
With CC1COCCN1c1cc(C2(S(C)(=N)=O)CC2)nc(-c2ccnc3[nH]ccc23)n1 (configuration not stated) the viability, T/C (compound 0.0316 µM) was 103% and 87.2%, the viability, T/C (compound 0.1 µM) was 93.4% and 94.7% and the viability, T/C (compound 0.316 µM) was 44.4% and 91.3%. For the same compound, the viability, T/C (compound 1 µM) was 14.2% and 48%, the viability, T/C (compound 3.16 µM) was 8.73% and 10% and the viability, T/C (compound 10 µM) was 9.16% and 5.79%. For the same compound, the IC50 (curve of compound) was 278 nM and 952 nM.
